Measured values taken from US20250108038A1 (priority 2023, published 2025).
“Also recorded” adds a separate entry of the source.

Key:
[1] = Stability of test articles at different pH values (SGF, SIF, PBS); assay type: physicochemical; settings: 0.1 mM, 37° C., 0-120 min
Method: FIG. 1A. […] (final concentration 0.1 mM) and the mixture was incubated at 37° C. for 120 min. total. […] Values represent mean+SEM of n=3 separate experiments.
FIG. 1B. Stability of Compound I-4 in 3 different fluid matrices modeling 3 different body fluids: SGF (gastric, pH 2.0), SIF (upper intestinal, pH 6.0), and PBS (systemic fluid, pH 7.4). […] (final concentration 0.1 mM) and the mixture was incubated at 37° C. for 120 min. total. […] Values represent mean+SEM of n=3 separate experiments.
10 mM stock solutions of test articles were prepared in DMSO. From this stock solution, a single concentration in a 10 μL aliquot was added to three fluid matrices: SGF at pH 2.0 (gastric), SIF at pH 6.0 (upper intestine), and PBS at pH 7.4 (systemic fluid). The final volume was 1 mL (0.1 mM).
LC-MS/MS analysis of test articles was performed on a Waters Acquity UPLC system in-line with a Waters TQ-S triple quadrupole mass spectrometer via an electrospray interface.
UPLC separation of samples was performed on a Waters BEH Phenyl 2.1×50 column at 40 C. Mobile phase was 0.1% formic acid in water for mobile phase A and 0.1% formic acid in acetonitrile as mobile phase B. Gradient elution was 1% B initial, 65% B to 95% B at 2 minutes, 95% B at 4 minutes, and 1% B at 4.1 minutes. Flow rate was 0.4 mL/min and 5 μL of samples was injected.

OATP1B1 = molecular target: T1, OATP1B1 (Homo sapiens, UniProt Q9Y6L6); test: Uptake transporter inhibition assay, OATP1B1 (estradiol-17-β-glucuronide); settings: for Maximum % inhibition: OATP1B1, HEK293 cells, E217βG (1 μM), NIO: no inhibition observed
T1 sequence (Q9Y6L6 1-691): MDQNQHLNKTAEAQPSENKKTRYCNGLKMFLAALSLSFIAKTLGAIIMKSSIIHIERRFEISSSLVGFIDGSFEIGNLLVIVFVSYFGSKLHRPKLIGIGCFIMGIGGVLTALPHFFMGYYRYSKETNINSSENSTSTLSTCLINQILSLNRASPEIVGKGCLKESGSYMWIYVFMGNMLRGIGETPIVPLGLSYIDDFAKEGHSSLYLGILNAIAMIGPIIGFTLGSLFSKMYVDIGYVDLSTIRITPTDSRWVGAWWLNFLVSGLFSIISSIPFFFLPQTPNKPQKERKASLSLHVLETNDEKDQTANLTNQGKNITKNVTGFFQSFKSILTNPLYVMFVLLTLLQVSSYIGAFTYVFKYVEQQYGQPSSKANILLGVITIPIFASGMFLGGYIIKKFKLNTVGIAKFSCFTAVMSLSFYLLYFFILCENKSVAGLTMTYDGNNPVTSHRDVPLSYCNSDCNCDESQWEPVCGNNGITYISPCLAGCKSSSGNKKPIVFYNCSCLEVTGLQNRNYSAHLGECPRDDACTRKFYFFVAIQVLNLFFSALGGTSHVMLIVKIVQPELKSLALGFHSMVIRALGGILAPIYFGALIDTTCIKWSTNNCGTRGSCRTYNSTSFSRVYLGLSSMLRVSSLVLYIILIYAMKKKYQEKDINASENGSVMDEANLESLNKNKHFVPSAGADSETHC
Method: Uptake experiments were performed using HEK293 cells stably expressing the respective uptake transporters. The assays were conducted according to the actual SOLVO uptake transporter assay protocols (PR-ASY-UPT-General Protocol for Uptake Transporter Inhibition Assays).
Cells were cultured at 37° C. in a humidified atmosphere containing 5% CO2 and were plated onto standard 96-well tissue culture plates.
Before the experiment, the medium was removed, and the cells were washed twice with 100 μL of pre-warmed (37° C.) assay buffer listed in Table 15. The cells were pre-incubated at 37° C. for 30 minutes in assay buffer containing the test article at appropriate concentrations (Table 16), appropriate solvents for solvent controls and the reference inhibitor for reference inhibitor wells. After the pre-incubation step solutions were removed. Uptake experiments were performed at 37° C. in 50 μL of assay buffer containing the probe substrate and the test article or solvent and controls.
After the experiment, cells were washed twice with 100 μL of appropriate cold buffer and lysed with 150 μL scintillation cocktail. Radiolabeled probe substrate transport was determined by liquid scintillation counting.
Uptake of the probe substrate in control cells provided background activity values for all data points.

[2] = 0.14 μM nominal, 0.09 μM NSB corrected, follow-up assay
[3] = 1.24 μM nominal, 0.86 μM NSB corrected, follow-up assay
[4] = 10.00 μM nominal, 6.60 μM NSB corrected
[5] = 11.11 μM nominal, 7.89 μM NSB corrected, follow-up assay
[6] = 33.33 μM nominal, 24.33 μM NSB corrected, follow-up assay
[7] = 100.00 μM nominal, 77.00 μM NSB corrected
[8] = 100.00 μM nominal, 100.00 μM NSB corrected, follow-up assay
[9] = 2-concentration assay, up to 100 μM (Compound A up to 30 μM)
[10] = […] nominal, 1.89 μM NSB corrected, follow-up assay

Q: With `Clc1ccc(C2(OCC3OCCO3)c3ccccc3C3=NCCN32)cc1` (stereo not drawn) [Compound I-19] as the compound, how does the “Stability (% parent compound remaining)” value ([1]; PBS (systemic fluid, pH 7.4)) read?
A: time-dependent decrease in the amount; also recorded: some lack of stability

Q: What about the “Stability (% parent compound remaining)” value ([1]; SGF (gastric, pH 2.0)) of the same compound?
A: time-dependent decrease in the LCMSMS peak area until 20 min; also recorded: some lack of stability over 15 min

Q: And the Relative inhibition (OATP1B1; [2])?
A: 0%

Q: What about the “Relative transporter specific accumulation” value (OATP1B1; [2]) of the same compound?
A: 99.91 ± 3.20 % of control

Q: And the Transporter specific accumulation (OATP1B1; [2])?
A: 2,252.33 ± 16.07 cpm

Q: What about the Relative inhibition (OATP1B1; [3]) of the same compound?
A: 3%

Q: And the “Relative transporter specific accumulation” value (OATP1B1; [3])?
A: 96.63 ± 3.76 % of control

Q: What about the Transporter specific accumulation (OATP1B1; [3]) of the same compound?
A: 2,178.33 ± 50.48 cpm

Q: And the Relative inhibition (OATP1B1; [4])?
A: 25%

Q: What about the “Relative transporter specific accumulation” value (OATP1B1; [4]) of the same compound?
A: 75.21 ± 2.39 % of control

Q: And the Transporter specific accumulation (OATP1B1; [4])?
A: 2,303.00 ± 45.84 cpm

Q: And the Relative inhibition (OATP1B1; [5])?
A: 23%

Q: What about the “Relative transporter specific accumulation” value (OATP1B1; [5]) of the same compound?
A: 77.32 ± 2.52 % of control

Q: What about the Transporter specific accumulation (OATP1B1; [5]) of the same compound?
A: 1,743.00 ± 16.09 cpm

Q: And the Relative inhibition (OATP1B1; [6])?
A: 50%

Q: What about the “Relative transporter specific accumulation” value (OATP1B1; [6]) of the same compound?
A: 49.83 ± 2.48 % of control

Q: What about the Transporter specific accumulation (OATP1B1; [6]) of the same compound?
A: 1,123.33 ± 43.53 cpm

Q: What about the Relative inhibition (OATP1B1; [7]) of the same compound?
A: 87%

Q: And the “Relative transporter specific accumulation” value (OATP1B1; [7])?
A: 12.92 ± 0.41 % of control

Q: And the Transporter specific accumulation (OATP1B1; [7])?
A: 395.67 ± 8.05 cpm

Q: And the Relative inhibition (OATP1B1; [8])?
A: 83%

Q: What about the “Relative transporter specific accumulation” value (OATP1B1; [8]) of the same compound?
A: 16.93 ± 0.58 % of control

Q: And the Transporter specific accumulation (OATP1B1; [8])?
A: 381.67 ± 5.50 cpm

Q: And the “maximum inhibition of OATP1B1-mediated E217βG accumulation” value (“maximum inhibition” for short) (OATP1B1; [9])?
A: 87%

Q: And the Maximum % inhibition (OATP1B1)?
A: 83%

Q: What about the Relative inhibition (OATP1B1; [10]) of the same compound?
A: 5%

Q: And the “Relative transporter specific accumulation” value (OATP1B1; [10])?
A: 95.49 ± 3.39 % of control

Q: And the Transporter specific accumulation (OATP1B1; [10])?
A: 2,152.67 ± 36.09 cpm

Q: And the “maximum inhibition” value (OATP1B1; follow-up assay)?
A: 83%

Q: What about the IC50 (OATP1B1; follow-up assay, NSB-corrected concentrations) of the same compound?
A: 31.4 µM

Q: With `OC1(c2ccc(Cl)cc2)c2ccccc2C2=NCCN21` (stereo not drawn) [Compound A, 5-(4-chlorophenyl)-2,3-dihydroimidazo[1,2-b]isoindol-5-ol, reference compound] as the compound, how does the “Relative transporter specific accumulation” value (OATP1B1; 3.00 μM nominal, E217βG, Table 119) read?
A: 96.77 ± 2.48 % of control

Q: What about the “Relative transporter specific accumulation” value (OATP1B1; 30.00 μM nominal, E217βG, Table 119) of the same compound?
A: 94.38 ± 2.14 % of control

Q: What about the “maximum inhibition” value (OATP1B1; [9]) of the same compound?
A: did not inhibit; also recorded: not an in vitro inhibitor

Q: What about the Maximum % inhibition (OATP1B1) of the same compound?
A: NIO

Q: And the inhibition at 3 μM (OATP1B1; human)?
A: 3%

Q: And the inhibition at 30 μM (OATP1B1; human)?
A: 6%

Q: For `COCCOC1(c2ccc(Cl)cc2)c2ccccc2C2=NCCN21` (stereo not drawn) [Compound I-4], which “Stability (% parent compound remaining)” value ([1]; PBS (systemic fluid, pH 7.4)) is on record?
A: no significant change in the amount of parent compound; also recorded: stable in all three fluid matrices

Q: What about the “Stability (% parent compound remaining)” value ([1]; SGF (gastric, pH 2.0)) of the same compound?
A: no significant change in the amount of parent compound; also recorded: stable in all three fluid matrices

Q: What about the “Stability (% parent compound remaining)” value ([1]; SIF (upper intestinal, pH 6.0)) of the same compound?
A: no significant change in the amount of parent compound; also recorded: stable in all three fluid matrices
